From ChEMBL document CHEMBL4229394 (Bioorg Med Chem Lett, 2018)

Legend:
[1] = system: HEK293; assay: Cytotoxicity against HEK293 cells co-expressing human GABA-B1/B2 receptor and Cre-luc plasmid at 50 to 100 uM after 3 hrs by CellTiter 96 aqueous one solution reagent based assay; format: cell-based; conditions: hek293, 3 h
[2] = biological target: GABA-B receptor (Homo sapiens, UniProt O75899+Q9UBS5); assay: Agonist activity at human GABA-B1/B2 receptor expressed in HEK293/Cre-luc cells assessed as inhibition of forskolin-stimulated cAMP accumulation after 3 hrs by luciferase reporter gene assay; format: cell-based
GABA-B receptor, sequence (Q9UBS5 whole entry): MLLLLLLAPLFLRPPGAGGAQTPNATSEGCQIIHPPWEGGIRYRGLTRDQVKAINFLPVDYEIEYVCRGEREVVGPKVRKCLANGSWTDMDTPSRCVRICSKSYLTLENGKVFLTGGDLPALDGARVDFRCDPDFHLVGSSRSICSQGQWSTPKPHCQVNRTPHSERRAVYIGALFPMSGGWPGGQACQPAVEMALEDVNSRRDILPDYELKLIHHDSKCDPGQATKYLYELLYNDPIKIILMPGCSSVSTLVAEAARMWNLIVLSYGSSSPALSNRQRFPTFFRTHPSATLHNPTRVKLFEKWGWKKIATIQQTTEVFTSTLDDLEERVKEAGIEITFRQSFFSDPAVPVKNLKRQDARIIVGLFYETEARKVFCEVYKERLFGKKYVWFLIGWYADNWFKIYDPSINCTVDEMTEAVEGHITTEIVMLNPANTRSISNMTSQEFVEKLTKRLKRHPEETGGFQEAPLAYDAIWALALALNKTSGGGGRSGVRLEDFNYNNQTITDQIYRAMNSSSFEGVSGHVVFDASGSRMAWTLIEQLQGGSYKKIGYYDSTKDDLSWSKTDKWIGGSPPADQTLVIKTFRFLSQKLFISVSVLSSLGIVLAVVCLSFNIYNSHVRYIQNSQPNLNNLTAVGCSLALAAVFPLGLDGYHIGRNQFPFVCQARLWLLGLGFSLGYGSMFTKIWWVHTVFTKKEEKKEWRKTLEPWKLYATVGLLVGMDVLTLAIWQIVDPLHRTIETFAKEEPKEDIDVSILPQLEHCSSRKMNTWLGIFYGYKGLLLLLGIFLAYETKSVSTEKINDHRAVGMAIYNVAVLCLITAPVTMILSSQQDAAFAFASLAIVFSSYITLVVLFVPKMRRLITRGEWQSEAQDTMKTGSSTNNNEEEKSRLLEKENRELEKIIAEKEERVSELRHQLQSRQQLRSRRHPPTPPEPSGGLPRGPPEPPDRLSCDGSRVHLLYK
GABA-B receptor, sequence (O75899 whole entry): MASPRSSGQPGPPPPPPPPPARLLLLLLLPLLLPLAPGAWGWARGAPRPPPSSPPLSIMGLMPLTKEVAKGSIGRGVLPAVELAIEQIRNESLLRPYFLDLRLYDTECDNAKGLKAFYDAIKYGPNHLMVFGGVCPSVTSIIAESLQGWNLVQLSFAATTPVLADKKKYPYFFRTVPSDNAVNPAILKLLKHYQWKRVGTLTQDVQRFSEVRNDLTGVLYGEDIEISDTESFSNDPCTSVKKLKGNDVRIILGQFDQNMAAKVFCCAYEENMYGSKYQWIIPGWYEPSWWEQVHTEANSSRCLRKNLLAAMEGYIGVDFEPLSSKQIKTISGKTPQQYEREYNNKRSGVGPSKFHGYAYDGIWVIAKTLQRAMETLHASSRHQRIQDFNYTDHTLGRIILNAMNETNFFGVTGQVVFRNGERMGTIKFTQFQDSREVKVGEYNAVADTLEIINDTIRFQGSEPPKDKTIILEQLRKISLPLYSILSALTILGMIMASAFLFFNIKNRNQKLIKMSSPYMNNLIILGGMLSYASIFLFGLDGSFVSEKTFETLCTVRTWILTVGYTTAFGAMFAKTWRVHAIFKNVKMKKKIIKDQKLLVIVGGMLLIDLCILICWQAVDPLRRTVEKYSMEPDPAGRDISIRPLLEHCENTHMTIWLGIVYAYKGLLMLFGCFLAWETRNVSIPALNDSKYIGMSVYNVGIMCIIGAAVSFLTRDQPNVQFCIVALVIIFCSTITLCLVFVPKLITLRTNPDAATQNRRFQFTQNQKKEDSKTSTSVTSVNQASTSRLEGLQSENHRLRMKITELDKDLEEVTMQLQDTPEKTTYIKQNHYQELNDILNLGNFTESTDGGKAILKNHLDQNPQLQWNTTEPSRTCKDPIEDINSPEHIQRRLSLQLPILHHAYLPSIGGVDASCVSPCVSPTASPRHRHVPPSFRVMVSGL

[3] = biological target: Mu-type opioid receptor (Homo sapiens) (UniProt P35372); assay: Inhibition of MOR (unknown origin) by radio ligand displacement assay relative to control; conditions: concentration not given here
[4] = biological target: 5-hydroxytryptamine receptor 1E (Homo sapiens) (UniProt P28566); assay: Inhibition of 5-HT1E receptor (unknown origin) by radio ligand displacement assay relative to control; conditions: concentration not given here
5-hydroxytryptamine receptor 1E (Homo sapiens), sequence (P28566 whole entry): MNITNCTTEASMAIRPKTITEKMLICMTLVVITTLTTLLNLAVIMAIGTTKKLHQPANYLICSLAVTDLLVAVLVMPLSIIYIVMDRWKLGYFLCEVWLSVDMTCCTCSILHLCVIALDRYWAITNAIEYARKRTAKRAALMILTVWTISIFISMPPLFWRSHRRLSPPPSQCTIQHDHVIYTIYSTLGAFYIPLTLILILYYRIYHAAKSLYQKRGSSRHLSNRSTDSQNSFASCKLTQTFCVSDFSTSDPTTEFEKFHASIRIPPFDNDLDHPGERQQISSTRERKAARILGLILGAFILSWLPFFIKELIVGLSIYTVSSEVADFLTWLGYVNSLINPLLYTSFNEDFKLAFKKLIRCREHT

[5] = biological target: Sigma non-opioid intracellular receptor 1 (Rattus norvegicus) (UniProt Q9R0C9); assay: Inhibition of rat sigma-1 receptor by radio ligand displacement assay relative to control; conditions: concentration not given here
[6] = biological target: D(1B) dopamine receptor (Homo sapiens) (UniProt P21918); assay: Inhibition of D5 receptor (unknown origin) by radio ligand displacement assay relative to control; conditions: concentration not given here
[7] = biological target: Histamine H4 receptor (Homo sapiens) (UniProt Q9H3N8); assay: Inhibition of H4 receptor (unknown origin) by radio ligand displacement assay relative to control; conditions: concentration not given here
[8] = biological target: Kappa-type opioid receptor (Homo sapiens) (UniProt P41145); assay: Inhibition of KOR (unknown origin) by radio ligand displacement assay relative to control; conditions: concentration not given here
Kappa-type opioid receptor (Homo sapiens), sequence (P41145 whole entry): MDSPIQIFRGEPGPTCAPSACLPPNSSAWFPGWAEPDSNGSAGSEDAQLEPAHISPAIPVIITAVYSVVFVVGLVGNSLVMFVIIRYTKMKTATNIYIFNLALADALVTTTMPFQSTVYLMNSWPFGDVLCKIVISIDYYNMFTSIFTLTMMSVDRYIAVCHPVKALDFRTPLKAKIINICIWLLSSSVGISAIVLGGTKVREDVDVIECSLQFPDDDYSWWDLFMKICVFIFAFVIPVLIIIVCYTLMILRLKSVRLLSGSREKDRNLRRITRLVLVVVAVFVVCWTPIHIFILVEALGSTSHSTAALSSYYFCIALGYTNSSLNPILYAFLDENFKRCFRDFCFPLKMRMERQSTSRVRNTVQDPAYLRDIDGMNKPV

[9] = biological target: Sodium-dependent dopamine transporter (Homo sapiens) (UniProt Q01959); assay: Inhibition of DAT (unknown origin) by radio ligand displacement assay relative to control; conditions: concentration not given here
[10] = biological target: 5-hydroxytryptamine receptor 2B (Homo sapiens) (UniProt P41595); assay: Inhibition of 5-HT2B receptor (unknown origin) by radio ligand displacement assay relative to control; conditions: concentration not given here
[11] = biological target: 5-hydroxytryptamine receptor 7 (Homo sapiens) (UniProt P34969); assay: Inhibition of 5-HT7 receptor (unknown origin) by radio ligand displacement assay relative to control; conditions: concentration not given here
[12] = biological target: 5-hydroxytryptamine receptor 1B (Homo sapiens) (UniProt P28222); assay: Inhibition of 5-HT1B receptor (unknown origin) by radio ligand displacement assay relative to control; conditions: concentration not given here
[13] = biological target: Sodium-dependent serotonin transporter (Homo sapiens) (UniProt P31645); assay: Inhibition of SERT (unknown origin) by radio ligand displacement assay relative to control; conditions: concentration not given here
[14] = biological target: D(2) dopamine receptor (Homo sapiens) (UniProt P14416); assay: Inhibition of D2 receptor (unknown origin) by radio ligand displacement assay relative to control; conditions: concentration not given here
[15] = biological target: Beta-3 adrenergic receptor (Homo sapiens) (UniProt P13945); assay: Inhibition of beta-3 adrenergic receptor (unknown origin) by radio ligand displacement assay relative to control; conditions: concentration not given here
[16] = biological target: 5-hydroxytryptamine receptor 3A (Homo sapiens) (UniProt P46098); assay: Inhibition of 5-HT3 receptor (unknown origin) by radio ligand displacement assay relative to control; conditions: concentration not given here
[17] = biological target: Histamine H3 receptor (Homo sapiens) (UniProt Q9Y5N1); assay: Inhibition of H3 receptor (unknown origin) by radio ligand displacement assay relative to control; conditions: concentration not given here
[18] = biological target: Beta-1 adrenergic receptor (Homo sapiens) (UniProt P08588); assay: Inhibition of beta-1 adrenergic receptor (unknown origin) by radio ligand displacement assay relative to control; conditions: concentration not given here
[19] = biological target: D(3) dopamine receptor (Homo sapiens) (UniProt P35462); assay: Inhibition of D3 receptor (unknown origin) by radio ligand displacement assay relative to control; conditions: concentration not given here
[20] = biological target: Muscarinic acetylcholine receptor M3 (Homo sapiens) (UniProt P20309); assay: Inhibition of M3 receptor (unknown origin) by radio ligand displacement assay relative to control; conditions: concentration not given here
[21] = biological target: Muscarinic acetylcholine receptor M2 (Homo sapiens) (UniProt P08172); assay: Inhibition of M2 receptor (unknown origin) by radio ligand displacement assay relative to control; conditions: concentration not given here
[22] = biological target: Muscarinic acetylcholine receptor M5 (Homo sapiens) (UniProt P08912); assay: Inhibition of M5 receptor (unknown origin) by radio ligand displacement assay relative to control; conditions: concentration not given here
[23] = biological target: Histamine H1 receptor (Homo sapiens) (UniProt P35367); assay: Inhibition of H1 receptor (unknown origin) by radio ligand displacement assay relative to control; conditions: concentration not given here
[24] = biological target: 5-hydroxytryptamine receptor 6 (Homo sapiens) (UniProt P50406); assay: Inhibition of 5-HT6 receptor (unknown origin) by radio ligand displacement assay relative to control; conditions: concentration not given here
[25] = biological target: D(4) dopamine receptor (Homo sapiens) (UniProt P21917); assay: Inhibition of D4 receptor (unknown origin) by radio ligand displacement assay relative to control; conditions: concentration not given here
[26] = biological target: 5-hydroxytryptamine receptor 5A (Homo sapiens) (UniProt P47898); assay: Inhibition of 5-HT5A receptor (unknown origin) by radio ligand displacement assay relative to control; conditions: concentration not given here
[27] = biological target: Muscarinic acetylcholine receptor M1 (Homo sapiens) (UniProt P11229); assay: Inhibition of M1 receptor (unknown origin) by radio ligand displacement assay relative to control; conditions: concentration not given here
[28] = biological target: Alpha-2A adrenergic receptor (Homo sapiens) (UniProt P08913); assay: Inhibition of alpha-2A adrenergic receptor (unknown origin) by radio ligand displacement assay relative to control; conditions: concentration not given here
Alpha-2A adrenergic receptor (Homo sapiens), sequence (P08913 whole entry): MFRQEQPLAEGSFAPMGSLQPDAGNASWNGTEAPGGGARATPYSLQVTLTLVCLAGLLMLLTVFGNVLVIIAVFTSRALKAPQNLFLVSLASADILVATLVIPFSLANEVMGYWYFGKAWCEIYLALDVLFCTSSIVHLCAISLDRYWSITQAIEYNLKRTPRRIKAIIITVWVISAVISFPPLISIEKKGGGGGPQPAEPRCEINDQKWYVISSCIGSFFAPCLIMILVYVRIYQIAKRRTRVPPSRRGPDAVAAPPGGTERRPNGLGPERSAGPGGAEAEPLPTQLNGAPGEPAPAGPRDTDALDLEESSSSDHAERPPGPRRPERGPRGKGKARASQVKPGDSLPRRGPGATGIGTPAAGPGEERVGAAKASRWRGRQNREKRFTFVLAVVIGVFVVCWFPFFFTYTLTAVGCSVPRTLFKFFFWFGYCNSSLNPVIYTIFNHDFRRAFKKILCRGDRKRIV

[29] = biological target: Sodium-dependent noradrenaline transporter (Homo sapiens) (UniProt P23975); assay: Inhibition of NET (unknown origin) by radio ligand displacement assay relative to control; conditions: concentration not given here
[30] = biological target: Beta-2 adrenergic receptor (Homo sapiens) (UniProt P07550); assay: Inhibition of beta-2 adrenergic receptor (unknown origin) by radio ligand displacement assay relative to control; conditions: concentration not given here
Beta-2 adrenergic receptor (Homo sapiens), sequence (P07550 whole entry, looked up): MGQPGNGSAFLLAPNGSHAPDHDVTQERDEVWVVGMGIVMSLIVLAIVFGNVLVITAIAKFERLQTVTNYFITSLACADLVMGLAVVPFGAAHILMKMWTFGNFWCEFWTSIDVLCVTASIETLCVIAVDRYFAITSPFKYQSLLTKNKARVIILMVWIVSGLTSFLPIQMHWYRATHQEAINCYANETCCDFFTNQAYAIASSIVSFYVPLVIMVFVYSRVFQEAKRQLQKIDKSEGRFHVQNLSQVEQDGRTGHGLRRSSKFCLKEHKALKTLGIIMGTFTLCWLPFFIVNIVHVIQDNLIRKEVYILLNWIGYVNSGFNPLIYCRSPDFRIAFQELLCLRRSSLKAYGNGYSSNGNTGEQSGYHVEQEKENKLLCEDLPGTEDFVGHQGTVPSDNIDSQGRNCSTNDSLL

[31] = biological target: Alpha-1D adrenergic receptor (Homo sapiens) (UniProt P25100); assay: Inhibition of alpha-1D adrenergic receptor (unknown origin) by radio ligand displacement assay relative to control; conditions: concentration not given here
[32] = biological target: Muscarinic acetylcholine receptor M4 (Homo sapiens) (UniProt P08173); assay: Inhibition of M4 receptor (unknown origin) by radio ligand displacement assay relative to control; conditions: concentration not given here
[33] = biological target: GABA-A receptor; alpha-1/beta-2/gamma-2 (Rattus norvegicus, UniProt P18508+P62813+P63138); assay: Agonist activity at rat GFP-fused GABA-A alpha1/beta2/gamma2 receptor expressed in human tsA201 cells at -60 mV holding potential by whole-cell voltage clamp method; format: cell-based
GABA-A receptor; alpha-1/beta-2/gamma-2, sequence (P18508 whole entry, the tested form may be a part): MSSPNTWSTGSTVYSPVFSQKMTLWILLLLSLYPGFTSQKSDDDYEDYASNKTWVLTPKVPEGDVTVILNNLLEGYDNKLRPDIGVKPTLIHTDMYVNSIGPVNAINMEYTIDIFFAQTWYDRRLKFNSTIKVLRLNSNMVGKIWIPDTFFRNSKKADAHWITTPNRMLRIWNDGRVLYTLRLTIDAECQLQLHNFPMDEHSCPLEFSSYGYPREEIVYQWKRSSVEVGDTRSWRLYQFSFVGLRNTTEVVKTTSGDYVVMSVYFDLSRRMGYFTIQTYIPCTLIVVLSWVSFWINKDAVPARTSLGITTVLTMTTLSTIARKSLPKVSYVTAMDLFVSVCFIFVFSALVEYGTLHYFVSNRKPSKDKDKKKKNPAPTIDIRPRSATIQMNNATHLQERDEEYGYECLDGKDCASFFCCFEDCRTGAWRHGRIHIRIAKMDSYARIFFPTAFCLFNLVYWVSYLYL
GABA-A receptor; alpha-1/beta-2/gamma-2, sequence (P62813 whole entry, the tested form may be a part): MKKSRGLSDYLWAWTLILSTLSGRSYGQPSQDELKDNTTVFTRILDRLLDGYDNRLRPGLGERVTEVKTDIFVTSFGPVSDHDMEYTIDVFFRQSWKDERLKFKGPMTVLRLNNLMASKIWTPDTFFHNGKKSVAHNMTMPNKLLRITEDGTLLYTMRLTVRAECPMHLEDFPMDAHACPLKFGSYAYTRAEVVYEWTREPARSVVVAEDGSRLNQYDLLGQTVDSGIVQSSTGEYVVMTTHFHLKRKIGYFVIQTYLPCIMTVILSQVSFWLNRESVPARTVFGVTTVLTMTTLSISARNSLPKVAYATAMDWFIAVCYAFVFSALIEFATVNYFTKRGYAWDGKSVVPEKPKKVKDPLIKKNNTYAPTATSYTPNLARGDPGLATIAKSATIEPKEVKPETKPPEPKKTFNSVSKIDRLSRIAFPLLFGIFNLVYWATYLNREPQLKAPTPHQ
GABA-A receptor; alpha-1/beta-2/gamma-2, sequence (P63138 whole entry, the tested form may be a part): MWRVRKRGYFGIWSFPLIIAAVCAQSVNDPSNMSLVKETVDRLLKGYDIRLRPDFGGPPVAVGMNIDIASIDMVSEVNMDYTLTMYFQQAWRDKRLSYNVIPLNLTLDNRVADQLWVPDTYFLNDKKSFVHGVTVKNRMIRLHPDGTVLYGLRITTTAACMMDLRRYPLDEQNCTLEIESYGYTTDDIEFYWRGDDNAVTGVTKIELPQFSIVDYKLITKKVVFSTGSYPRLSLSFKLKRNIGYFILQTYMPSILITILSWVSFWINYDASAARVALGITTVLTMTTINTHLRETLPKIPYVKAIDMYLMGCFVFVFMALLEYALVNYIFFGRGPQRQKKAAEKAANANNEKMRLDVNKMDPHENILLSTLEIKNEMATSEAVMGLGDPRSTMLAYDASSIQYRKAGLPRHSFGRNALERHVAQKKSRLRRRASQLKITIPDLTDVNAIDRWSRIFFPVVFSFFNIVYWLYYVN

[34] = biological target: D(1A) dopamine receptor (Homo sapiens) (UniProt P21728); assay: Inhibition of D1 receptor (unknown origin) by radio ligand displacement assay relative to control; conditions: concentration not given here
[35] = biological target: Alpha-1A adrenergic receptor (Homo sapiens) (UniProt P35348); assay: Inhibition of alpha-1A adrenergic receptor (unknown origin) by radio ligand displacement assay relative to control; conditions: concentration not given here
[36] = biological target: 5-hydroxytryptamine receptor 2A (Homo sapiens) (UniProt P28223); assay: Inhibition of 5-HT2A receptor (unknown origin) by radio ligand displacement assay relative to control; conditions: concentration not given here
[37] = biological target: 5-hydroxytryptamine receptor 1A (Homo sapiens) (UniProt P08908); assay: Inhibition of 5-HT1A receptor (unknown origin) by radio ligand displacement assay relative to control; conditions: concentration not given here
[38] = biological target: Histamine H2 receptor (Homo sapiens) (UniProt P25021); assay: Inhibition of H2 receptor (unknown origin) by radio ligand displacement assay relative to control; conditions: concentration not given here
[39] = biological target: Alpha-1B adrenergic receptor (Homo sapiens) (UniProt P35368); assay: Inhibition of alpha-1B adrenergic receptor (unknown origin) by radio ligand displacement assay relative to control; conditions: concentration not given here
[40] = biological target: 5-hydroxytryptamine receptor 2C (Homo sapiens) (UniProt P28335); assay: Inhibition of 5-HT2C receptor (unknown origin) by radio ligand displacement assay relative to control; conditions: concentration not given here
[41] = biological target: 5-hydroxytryptamine receptor 1D (Homo sapiens) (UniProt P28221); assay: Inhibition of 5-HT1D receptor (unknown origin) by radio ligand displacement assay relative to control; conditions: concentration not given here
[42] = biological target: Sigma intracellular receptor 2 (Rattus norvegicus) (UniProt Q5U3Y7); assay: Inhibition of rat sigma-2 receptor by radio ligand displacement assay relative to control; conditions: concentration not given here
[43] = biological target: Delta-type opioid receptor (Homo sapiens) (UniProt P41143); assay: Inhibition of DOR (unknown origin) by radio ligand displacement assay relative to control; conditions: concentration not given here

## CCc1ccc(C(O)C(F)(F)C(=O)C23CC4CC(CC(C4)C2)C3)cc1 (stereo unspecified)
[1]
  Activity: Toxic
[2]
  EC50: > 100 µM

## O=C(C12CC3CC(CC(C3)C1)C2)C(F)(F)C(O)c1ccc(Cl)cc1 (stereo unspecified)
[1]
  Activity: Toxic
[2]
  EC50: > 100 µM

## CC(C)(C)OC(=O)NC(c1ccccc1)C(F)(F)C(=O)c1ccc2ccccc2c1 (stereo unspecified)
[3]
  inhibition: < 30%
[4]
  inhibition: < 30%
[5]
  inhibition: < 30%
[6]
  inhibition: < 30%
[7]
  inhibition: < 30%
[8]
  inhibition: < 30%
[9]
  inhibition: < 30%
[10]
  inhibition: < 30%
[11]
  inhibition: < 30%
[12]
  inhibition: < 30%
[13]
  inhibition: < 30%
[14]
  inhibition: < 30%
[2]
  EC50: 19.4 µM
[15]
  inhibition: < 30%
[16]
  inhibition: < 30%
[17]
  inhibition: < 30%
[18]
  inhibition: < 30%
[19]
  inhibition: < 30%
[20]
  inhibition: < 30%
[21]
  inhibition: < 30%
[22]
  inhibition: < 30%
[23]
  inhibition: < 30%
[24]
  inhibition: < 30%
[25]
  inhibition: < 30%
[26]
  inhibition: < 30%
[27]
  inhibition: < 30%
[28]
  inhibition: < 30%
[29]
  inhibition: < 30%
[30]
  inhibition: < 30%
[31]
  inhibition: < 30%
[32]
  inhibition: < 30%
[33]
  EC50: > 100 µM
[34]
  inhibition: < 30%
[35]
  inhibition: < 30%
[36]
  inhibition: < 30%
[37]
  inhibition: < 30%
[38]
  inhibition: < 30%
[39]
  inhibition: < 30%
[40]
  inhibition: < 30%
[41]
  inhibition: < 30%
[42]
  inhibition: < 30%
[43]
  inhibition: < 30%

## O=C(C12CC3CC(CC(C3)C1)C2)C(F)(F)C(O)c1ccccc1 (stereo unspecified)
[1]
  Activity: Toxic
[2]
  EC50: > 100 µM

## O=C(c1ccc(Cl)cc1)C(F)(F)C(NCc1ccccc1)c1ccccc1 (stereo unspecified)
[2]
  EC50: 57.4 µM
[33]
  EC50: > 100 µM

## O=C(C12CC3CC(CC(C3)C1)C2)C(F)(F)C(O)/C=C/c1ccccc1 (stereo unspecified)
[33]
  EC50: > 100 µM

## CC(=O)c1ccc(C(O)C(F)(F)C(=O)C23CC4CC(CC(C4)C2)C3)cc1 (stereo unspecified)
[3]
  inhibition: < 30%
[4]
  inhibition: < 30%
[5]
  inhibition: < 30%
[6]
  inhibition: < 30%
[7]
  inhibition: < 30%
[8]
  inhibition: < 30%
[9]
  inhibition: < 30%
[10]
  inhibition: < 30%
[11]
  inhibition: < 30%
[12]
  inhibition: < 30%
[13]
  inhibition: < 30%
[14]
  inhibition: < 30%
[15]
  inhibition: < 30%
[16]
  inhibition: < 30%
[17]
  inhibition: < 30%
[18]
  inhibition: < 30%
[19]
  inhibition: < 30%
[20]
  inhibition: < 30%
[21]
  inhibition: < 30%
[22]
  inhibition: < 30%
[23]
  inhibition: < 30%
[24]
  inhibition: < 30%
[25]
  inhibition: < 30%
[26]
  inhibition: < 30%
[27]
  inhibition: < 30%
[28]
  inhibition: < 30%
[29]
  inhibition: < 30%
[30]
  inhibition: < 30%
[31]
  inhibition: < 30%
[32]
  inhibition: < 30%
[34]
  inhibition: < 30%
[35]
  inhibition: < 30%
[36]
  inhibition: < 30%
[37]
  inhibition: < 30%
[38]
  inhibition: < 30%
[39]
  inhibition: < 30%
[40]
  inhibition: < 30%
[41]
  inhibition: < 30%
[42]
  inhibition: < 30%
[43]
  inhibition: < 30%

## O=C(c1ccc2ccccc2c1)C(F)(F)C(NCc1ccccc1)c1ccccc1 (stereo unspecified)
[2]
  EC50: 91 µM
[33]
  EC50: > 100 µM

## CC(C)CC(=O)C(F)(F)C(NC(=O)OC(C)(C)C)c1ccccc1 (stereo unspecified)
[2]
  EC50: > 100 µM

## C/C=C/C=C/C(NCc1ccccc1)C(F)(F)C(=O)c1ccc2ccccc2c1 (stereo unspecified)
[2]
  EC50: > 100 µM

## O=C(C12CC3CC(CC(C3)C1)C2)C(F)(F)C(NS(=O)(=O)c1ccccc1)c1ccccc1 (stereo unspecified)
[2]
  EC50: > 100 µM

## O=C(c1ccc2ccccc2c1)C(F)(F)C(NS(=O)(=O)c1ccccc1)c1ccccc1 (stereo unspecified)
[2]
  EC50: 32.7 µM
[33]
  EC50: > 100 µM

## CC(=O)c1ccc(C(O)C(F)(F)C(=O)c2ccccn2)cc1 (stereo unspecified)
[2]
  EC50: > 100 µM

## O=C1c2ccccc2C(=O)N1CC(O)C(F)(F)C(=O)C12CC3CC(CC(C3)C1)C2 (stereo unspecified)
[2]
  EC50: > 100 µM

## CC(C)(C)OC(=O)NC(c1ccccc1)C(F)(F)C(=O)c1ccc2c(c1)OCO2 (stereo unspecified)
[2]
  EC50: > 100 µM
